# A melting point compilation (Tetko et al.; mined from patent text by program, amines drawn as free bases though some values may be those of a salt)
row,Structure (SMILES),melting point [°C]
1,N#CC(C#N)=C1Sc2cnn(-c3ccccc3)c(=O)c2S1,240
2,Nc1nnc(-c2cccc(F)c2F)c(N)n1,229 to 230
3,Oc1cc2c(cc1F)[C@H](O)[C@H](N1CCC(O)(c3ccc(F)cc3)CC1)CO2 (relative stereo),160 to 161
4,O=[N+]([O-])c1ccc(NN=Cc2ncc[nH]2)nc1,268 to 269
5,C[C@H]1Oc2ccc(F)cc2NC(=O)[C@H]1N,173 to 177
6,CCN(CC)c1cc2cnnn2c(C)n1,57 to 58
7,CCOC(=O)c1c(C)[nH]c2ccccc12,96 to 98
8,CCC(CC)c1ccc(C#N)c2nc(Oc3ccc(Cl)cc3Br)n(C)c12,136 to 137
9,COc1nnc2cc(Cl)ccc2n1,122
10,Cc1c(C(=O)O)ccc(S(C)(=O)=O)c1N,197 to 198
11,COc1cc2c(cc1S(C)(=O)=O)nc(C)n2C(C)C,161 to 165
12,COCCOCOc1c(C(C)(C)C)cc(C2=NC(=S)N=N2)cc1C(C)(C)C,187
13,NC(=O)c1sc2cncc(Oc3ccc(Cl)cc3)c2c1N,202 to 204
14,CC(O)C(=O)NCCNC(=O)C(C)O (configuration not stated),188
15,CCCCCN(CCC12CC3CC(CC(C3)C1)C2)C(=O)NCc1ccccn1,87.5 to 92
16,NCC1Cc2cccc(-c3cc(Cl)cc(Cl)c3)c2O1 (configuration not stated),165 to 168
17,N#CCc1cn2cccc(OCc3ccccc3)c2n1,148 to 150
18,O=C(O)CCc1ccc([N+](=O)[O-])cc1,162 to 164
19,N#CC1CCCc2c(C(=O)O)cccc21 (configuration not stated),177 to 179

row,Structure (SMILES),melting point [°C]
1,O=C(O)C(F)(F)C(F)(F)C(F)(F)C(F)(F)C(F)(F)C(F)(F)C(=O)O,142 to 144
2,C[C@@H]1CCN(C(=O)C(C)(C)C)[C@@H](C(=O)NOCc2ccccc2)C1,107 to 108
3,COc1ccc(-c2ccccn2)c(NC(=O)CC(C)N)c1 (configuration not stated),185 to 188
4,COC(=O)Cc1ccc2oc(=S)[nH]c2c1,120 to 122
5,OCc1sccc1C=Cc1csc2ccccc12,114 to 115
6,N#Cc1c(N2CCc3ccccc3CC2)nc(N)[nH]c1=O,> 200
7,COc1cc(CCC=CC(=O)CCC(=O)O)cc(OC)c1OC,187 to 189
8,CC1SC(c2cccnc2)N(C)C1=O (configuration not stated),66.5 to 68.5
9,CCNC(=O)c1c(C)cccc1[Si](C)(C)C,64 to 66
10,COc1ccc(C(=NO)c2ccccc2F)c(O)c1C,167 to 169
11,NC(=O)c1ccc(OCCNCC(O)COc2nccnc2Cl)cc1 (configuration not stated),134 to 135
12,CN(C)S(=O)(=O)c1ccc(-c2ccccc2)cc1S(=O)(=O)Cl,140 to 143
13,O=[N+]([O-])c1ccc(Sc2ccc(O)c(Cl)c2Cl)cc1,204
14,Cc1nnc(Cl)c(-c2c(F)cc(F)cc2F)c1-c1cccs1,90 to 92
15,Fc1cccc2c1C1=NCCN1C(Cl)=N2,281 to 285
16,O=C1CNCCN1c1ccc([N+](=O)[O-])cc1,150 to 153
17,N#CC(SCCc1ccc2c(c1)OCO2)C(=O)O (configuration not stated),106 to 107
18,Cc1ccccc1NC(=O)c1c(C)nn(C)c1N,113 to 115
19,COCC1CCCN(/C(C)=C(/C#N)C(N)=S)C1 (configuration not stated),151 to 152

row,Structure (SMILES),melting point [°C]
1,CCOC(=O)/C=C/c1sc(SC)c2c1CCCC2=O,104 to 105
2,CC1(C)SC(c2cc(Br)c(O)c(Br)c2)NC1C(=O)O (configuration not stated),154 to 155
3,COC(=O)c1c(F)c(F)c(F)c(F)c1C(=O)OC,68 to 70
4,O=C(Nc1ccc(F)cc1)N1CCCCN1,78.5 to 79.5
5,CCCSc1nc[nH]n1,53 to 56
6,CSC(CC(=O)O)c1ccc(C(F)(F)F)cc1 (configuration not stated),106 to 108
7,FC(F)(F)c1nc(-c2ccccc2)c(-c2ccccc2)s1,94 to 97
8,CCOC(=O)C=C(NC(=O)Nc1cc(OC(C)C)c(Cl)cc1F)C(F)(F)F,144 to 146
9,CNC(=O)CC1=CC2(CCCC2)c2ccc(Cl)cc21,190
10,O=C(NC(=O)c1c(F)cccc1F)Nc1cc(C(F)(F)F)c(Cl)cc1Br,196
11,Cc1cc(C#N)c(C)c(C(=O)Nc2ccc(F)cn2)n1,196
12,NC(=O)NCCCCC1CCSS1 (configuration not stated),110 to 113
13,Cc1cccc(NC(=S)NC2N=C(c3ccccc3F)c3ccccc3N(CC(=O)N3CC4CCC(CC4)C3)C2=O)c1 (racemic),129 to 134
14,CN(C)c1cc[nH]c(=O)c1[N+](=O)[O-],208 to 209
15,CCOc1cccc(CSc2nc3cnccc3[nH]2)c1,158 to 161
16,COc1ccc(C2=C(c3ccc(S(C)(=O)=O)cc3)CCC2)cc1,129 to 130
17,Cn1c(C(N)=O)nc([N+](=O)[O-])c1C#N,265 to 267
18,C#CC(C)(C)N1CCN(C(=O)C(C)(C)C)CC1,106 to 109
19,O=S(=O)(N[C@H](CO)[C@@H](c1cc(F)cc(F)c1)C(F)(F)F)c1ccc(Cl)s1,126

# The remaining lines, values ahead:
row,melting point [°C],Structure (SMILES)
1,108 to 109,Cc1nc(-c2cccc(Cn3ccc4nc(C(C)C)n(Cc5ccc6ccc(-c7noc(C)n7)cc6c5)c4c3=O)c2)no1
2,> 250,Cc1c(C(=O)Nc2ccc(N3CCC(O)CC3)c(C#N)c2)c2cc(F)ccc2n1CC(=O)O
3,97.8,CC(C)(C)NC(=O)N1CCN(Cc2ccccc2)C[C@@H]1C(=O)NCCc1cncn1Cc1ccc(C#N)cc1
4,187 to 189,Cc1ncccc1Oc1ccc(NC(=O)C=Cc2ccccc2Cl)cn1
5,57 to 59,CCCCCCCCCCCCCCCCCCOC(=O)COc1ccc(C2C(=O)Oc3c(C)cc(C)cc32)cc1 (configuration not stated)
6,116 to 118,Nc1cccc(NC(=O)NCCCOc2cccc(CN3CCCCC3)c2)c1
7,149 to 151,Cn1ncnc1COc1nc2c(cnn2-c2ccccc2)c2ccccc12
8,233 to 235,O=C(CCCN1CCN(c2ccc(F)cc2)CC1)NC1c2ccccc2C=Cc2ccccc21
9,184 to 187,NS(=O)(=O)c1ccc(NC(=O)C(=O)N2CCC(Cc3ccccc3)CC2)cc1
10,210 to 211,CCOC(=O)C1=C(C)NC2=C(C(=O)N(CCO)C2)C1c1ccccc1[N+](=O)[O-] (configuration not stated)
11,209 to 210,CC(C)=C[C@@H](OC(=O)C=C(C)N[C@@H](C)c1cccc2ccccc12)C(Cl)(Cl)Cl
12,264 to 267,Cn1cc(-c2cc3cccnc3[nH]2)c2ccc(C(=O)NCCO)cc21
13,114 to 117,CCc1nc2c(cnn2CC)c(NC2CCOCC2)c1CNC(=O)c1cccc(C(=O)NCc2ccc(C)c(-c3cccc(C=O)c3)c2)c1
14,111 to 112,O=[N+]([O-])c1oc2ccc(CN3CCCC3)cc2c1-c1ccccc1
15,198 to 200,O=c1c2c(OCC3CO3)cc(OCC3CO3)cc2oc2ccc3ccccc3c12 (configuration not stated)
16,> 300,COc1ccc(-c2[nH]nc3c2C(=O)c2c(NC(=O)Nc4ccncc4)cccc2-3)cc1
17,326 to 328,CC(C)(C)c1ccc(-c2nc(NC(=O)c3cccnc3)sc2-c2ccncc2)cc1
18,136,Cc1ccc(S(=O)(=O)OCCc2nc(-c3ccc(Br)cc3)oc2C)cc1
19,119,O=C(c1cccc(C(F)(F)F)c1)N1CCc2cc(S(=O)(=O)N3CC(c4ccccc4)NC3=O)ccc21 (configuration not stated)
20,242 to 244,Cc1ccc(C(=O)c2sc(Nc3ccc(S(N)(=O)=O)cc3)nc2N)c(C)c1
21,50 to 55,C=C(CCC(=O)N1C(=O)OC[C@H]1c1ccccc1)c1ccc(F)cc1F
22,199 to 200,Cc1ccccc1Nc1nc2ccc(CC(=O)O)cc2o1
23,150 to 152,CN(Cc1cc2c3c(c1)c(=O)c(C(=O)NCc1ccc(F)cc1)cn3CC(=O)N2C)C[C@@H](O)c1ccccc1

row,melting point [°C],Structure (SMILES)
1,163 to 166,O=Cc1cccc(OC(=O)C(=O)Oc2cccc(C=O)c2)c1
2,120 to 122,CNC(=O)Nc1cc(NC(=O)/C=C/c2ccc(C(C)(C)C)cc2)ccc1Cl
3,222 to 224,COc1cc(C(C)C)ccc1C1(NC(C)=O)C(=O)c2ccccc2C1=O
4,112 to 114,CN(C(=O)N1CCOCC1)c1ccc(OCC(=O)N[C@@H](CC(N)=O)C(=O)N[C@@H](Cc2ccccc2)[C@H](O)C(=O)N2CCC[C@H]2C(=O)NC(C)(C)C)cc1
5,104 to 107,Cc1cc(OCCN2CCC(n3cnc4cccnc43)CC2)nn1-c1ccc(Cl)c(Cl)c1
6,145,O=C(c1ccc(F)cc1)C1CCN(CCN2c3cccc4cccc(c34)S2(=O)=O)CC1
7,85 to 87,COCCc1nc2c(N)nc3ccccc3c2n1CCCCNC(=O)c1cnc2ccccc2n1
8,123 to 124,COC(=O)c1ccc(S(=O)(=O)C2CCN(CCc3ccc(F)cc3F)CC2)cc1
9,141 to 143,Cc1cccc2c1C=Cc1ccccc1C2(O)CCCN(C)C (configuration not stated)
10,170 to 172,O=C1NN(c2nc3ccc(Cl)cc3s2)C(c2ccccc2)C1c1ccccc1 (configuration not stated)
11,151 to 152,CC(=O)c1ccc(NS(C)(=O)=O)c(S(=O)c2ccc(F)cc2F)c1 (configuration not stated)
12,184 to 186,Fc1ccc(-n2cc(C3CCN(CCN4CCNC4=S)CC3)c3ccc(Cl)cc32)cc1
13,132,CNC(=O)[C@@H]1C=CCN1S(=O)(=O)c1ccc(Cl)c(COc2cccc3c(-n4ccnc4)cc(C)nc23)c1Cl
14,282 to 286,Cc1ccc(OC2=NS(=O)(=O)N=C(Oc3ccc(C)cc3)N2C)cc1
15,122 to 124,CCNc1ncc(Nc2ccc(Cl)cc2)nc1-n1nc(C)cc1C
16,112 to 114,O=C(O)COc1ccc(SCc2cc(-c3ccc(Cl)cc3)on2)c2c1CCC2
17,101,CC(C)C[C@H](NC(=O)OCc1ccccc1)C(=O)NC(Cc1ccc(F)cc1)C(=O)CSCc1ccco1 (some centres not stated)
18,134 to 135,CCCCc1nc(CCCC)n(Cc2ccc(-c3ccccc3C(=O)O)cc2)n1
19,203 to 205,CCOCc1nc2c(N)nc3cc(C=O)ccc3c2n1CC(C)(C)O
20,111,CCC(=O)C1c2cccc(O)c2C(=O)c2c(OC(=O)C(C)C)cccc21 (configuration not stated)
21,176 to 179,COc1c(Cl)ccc(-c2cc(N)c(Cl)c(C(=O)NOC3CCCCO3)n2)c1F (configuration not stated)
22,182 to 183,O=C(O)COc1cccc(COC(=O)N(c2ccccc2)c2ccccc2)c1Cl
